One experiment has as its system wheat powdery mildew. Description: protectant activity in vivo against wheat powdery mildew. The conditions noted are these: Triticum aestivum, 168 h; for pest or weed control at 6.25 µg/mL: read-out: control effect against wheat powdery mildew (%), 6.25 mg/L; for pest or weed control at 6.25 µg/mL / pest or weed control at 25 µg/mL / pest or weed control at 100 µg/mL / pest or weed control at 400 µg/mL / pest or weed control at 0.4 µg/mL / pest or weed control at 1.6 µg/mL: protectant activity; for pest or weed control at 25 µg/mL: read-out: control effect against wheat powdery mildew (%), 25 mg/L; for pest or weed control at 100 µg/mL: read-out: control effect against wheat powdery mildew (%), 100 mg/L; for pest or weed control at 400 µg/mL: read-out: control effect against wheat powdery mildew (%), 400 mg/L; for pest or weed control at 0.4 µg/mL: read-out: control effect against wheat powdery mildew (%), 0.4 mg/L; for pest or weed control at 1.6 µg/mL: read-out: control effect against wheat powdery mildew (%), 1.6 mg/L; for pest or weed control at 6.25 ppm: read-out: protectant activity against wheat powdery mildew in vivo, 6.25 ppm; for pest or weed control at 25 ppm: read-out: protectant activity against wheat powdery mildew in vivo, 25 ppm; for pest or weed control at 100 ppm: read-out: protectant activity against wheat powdery mildew in vivo, 100 ppm; for pest or weed control at 400 ppm: read-out: protectant activity against wheat powdery mildew in vivo, 400 ppm.

The next experiment concerns cucumber downy mildew. In words: protectant activity in vivo against cucumber downy mildew. The conditions noted are these: Cucumis sativus, 168 h; for pest or weed control at 400 µg/mL: read-out: control effect against cucumber downy mildew (%), 400 mg/L.
In the next experiment the test system is rice blast. In words: microbe, parasite or virus in culture. Format: cell-based. To be noted: Pyricularia oryzae; for inhibition at 25 ppm: read-out: inhibition rate against rice blast, 25 ppm, in vitro.
Another experiment has as its system cucumber gray mold. Description: fungicidal activity in vitro (inhibition rate) against cucumber gray mold. The format is cell-based. To be noted: 25 ppm, in vitro; read-out: inhibition rate against cucumber gray mold.
The next experiment relates to armyworm. In words: bioactivity test against armyworm, airbrush spray. The format is in vivo. To be noted: 72 h; for pest or weed control at 600 µg/mL: 600 mg/L; for pest or weed control at 600 ppm: mortality after 72 h.
For the next experiment, the system named is corn rust. Description: protectant activity in vivo against corn rust. The conditions noted are these: Zea mays, 168 h; for pest or weed control at 6.25 µg/mL: read-out: control effect against corn rust (%), 6.25 mg/L; for pest or weed control at 25 µg/mL: read-out: control effect against corn rust (%), 25 mg/L; for pest or weed control at 100 µg/mL: read-out: control effect against corn rust (%), 100 mg/L; for pest or weed control at 400 µg/mL: read-out: control effect against corn rust (%), 400 mg/L; for pest or weed control at 6.25 ppm: read-out: protectant activity against corn rust in vivo, 6.25 ppm; for pest or weed control at 25 ppm: read-out: protectant activity against corn rust in vivo, 25 ppm; for pest or weed control at 100 ppm: read-out: protectant activity against corn rust in vivo, 100 ppm; for pest or weed control at 400 ppm: read-out: protectant activity against corn rust in vivo, 400 ppm.

The subject of another experiment is Diamond back moth. Description: insecticidal activity against diamond back moth, airbrush spray. The format is in vivo. To be noted: 72 h. Put shortly: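 Airbrush leaf-disc spray test: both faces of 2 cm cabbage discs received 0.5 ml of test solution at 0.7 kg/cm^2. Solutions were made in acetone:methanol (1:1) and brought to concentration with 0.1% Tween 80 in water. Ten second-instar larvae per disc, triplicates, were held at 25° C and 60˜70% R.H., with mortality recorded at 72 hrs.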

Another experiment deals with carmine spider mite. In words: bioactivity test against carmine spider mite, airbrush spray. Format: in vivo. To be noted: Tetranychus cinnabarinus, 72 h. Put shortly: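 Broadbean seedlings infested with adult mites were sprayed with compound (acetone/methanol stock diluted in 0.1% Tween 80 water) by airbrush at 0.7 kg/cm^2, 0.5 ml. Three replicates were run. Mortality was scored after 72 hrs.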

The test system of experiment [1] is Green peach aphids (Myzus Persicae Sulzer). Description: bioactivity test against green peach aphid, airbrush foliar spray. To be noted: Myzus persicae, foliar, 48 h. The format is in vivo. A digest of the protocol: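 Death rate was scored at 48 hrs, held at 25±1 C and 60±5% RH, following airbrush foliar spray (0.5 mL, 10 psi) onto cabbage leaf discs bearing about 15-30 aphids. Test solutions: compound dissolved in 1:1 acetone:methanol, brought to concentration with 0.1% tween 80 water.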

The mark [2] stands for this setting: read-out: Insecticidal activity against armyworm (%).

One may read the inhibition as the drop in the measured response relative to a control, in per cent. Regarding `CC(F)c1ncnc(NCCc2ccc(Oc3ccc(C(F)(F)F)cc3)cc2)c1Cl` (centres unmarked) [CK1, reference compound], the pest or weed control at 6.25 µg/mL with wheat powdery mildew amounted to 80%; in the experiment with cucumber downy mildew (read-out: control effect against cucumber downy mildew (%), 6.25 mg/L, protectant activity), 30%. Also, the pest or weed control at 25 µg/mL stood at 100% in the experiment on wheat powdery mildew and 100% in the experiment with cucumber downy mildew (read-out: control effect against cucumber downy mildew (%), 25 mg/L, protectant activity). For the same compound, the pest or weed control at 100 µg/mL came to 100% in the experiment with wheat powdery mildew and 100% in the experiment on cucumber downy mildew (read-out: control effect against cucumber downy mildew (%), 100 mg/L, protectant activity). For the same compound, the pest or weed control at 400 µg/mL in the experiment on wheat powdery mildew and in the experiment with cucumber downy mildew (protectant activity) was 100% in each case. The pest or weed control at 3.125 µg/mL in the experiment on cucumber downy mildew (read-out: control effect against cucumber downy mildew (%), 3.125 mg/L, protectant activity) worked out at 20%. Besides, in the experiment with cucumber downy mildew (read-out: control effect against cucumber downy mildew (%), 12.5 mg/L, protectant activity), the pest or weed control at 12.5 µg/mL stood at 50%. In addition, the pest or weed control at 50 µg/mL in the experiment on cucumber downy mildew (read-out: control effect against cucumber downy mildew (%), 50 mg/L, protectant activity) was 100%. The inhibition at 25 ppm in the experiment with rice blast and in the experiment on cucumber gray mold was 0% each time.
`CCc1ncnc(NC(C)c2ccc(Oc3ccc(C(F)(F)F)cc3)cc2)c1Cl` (centres unmarked) [CK47, reference compound]: the inhibition at 8.3 ppm with rice blast (read-out: inhibition rate against rice blast, 8.3 ppm, in vitro) came out at 0%. The inhibition at 25 ppm in the experiment on rice blast was < 50%. The inhibition at 25 ppm in the experiment with cucumber gray mold stood at 0%. Moreover, the pest or weed control at 10 µg/mL in the experiment with armyworm (10 mg/L, read-out: Insecticidal activity against armyworm (%)) turned out to be 0%. Also, in the experiment on armyworm (100 mg/L, read-out: Insecticidal activity against armyworm (%)), the pest or weed control at 100 µg/mL came to 25%. Besides, the pest or weed control at 600 µg/mL in the experiment with armyworm (setting [2]) was 86%. For the same compound, in the experiment with corn rust (protectant activity), the pest or weed control at 6.25 µg/mL turned out to be 0%, the pest or weed control at 25 µg/mL was 0%, the pest or weed control at 100 µg/mL turned out to be 30% and the pest or weed control at 400 µg/mL is 80%.
In the case of `FC(F)(F)c1cccnc1Oc1ccc(CCNc2cc(Cl)ncn2)cc1` [CK80, reference compound], the pest or weed control at 6.25 µg/mL with wheat powdery mildew and in the experiment on corn rust (protectant activity) was 0% each time. The values for the pest or weed control at 25 µg/mL in the experiment with wheat powdery mildew and in the experiment with corn rust (protectant activity) were 0% and 20%, respectively. Besides, the pest or weed control at 100 µg/mL turned out to be 80% with wheat powdery mildew; 40% in experiment [1] (100 mg/L, contrastive test, read-out: Insecticidal activity against peach aphid (%)); 85% in the experiment on corn rust (protectant activity). The results for the pest or weed control at 400 µg/mL in the experiment on wheat powdery mildew, in the experiment on cucumber downy mildew (protectant activity) and in the experiment with corn rust (protectant activity) were 100%, 85% and 100%, respectively. Besides, the pest or weed control at 600 µg/mL in the experiment with Diamond back moth (600 mg/L) amounted to 0%; with carmine spider mite (600 mg/L, contrastive test, read-out: Insecticidal activity against carmine spider mite (% )), 6%; in experiment [1] (600 mg/L, contrastive test, read-out: Insecticidal activity against peach aphid (%)), 87%; with armyworm (setting [2]), 0%. The pest or weed control at 10 µg/mL in [1] (10 mg/L, contrastive test, read-out: Insecticidal activity against peach aphid (%)) stood at 16%. Besides, in the experiment on cucumber gray mold, the inhibition at 25 ppm turned out to be 0%.
For the compound `FC(F)c1ncnc(NCCc2ccc(Oc3ccc(C(F)(F)F)cn3)cc2)c1Cl` [Compound I-2342], in the experiment with wheat powdery mildew, the pest or weed control at 0.4 µg/mL turned out to be 60%, the pest or weed control at 1.6 µg/mL was determined as 95%, the pest or weed control at 6.25 µg/mL worked out at 100% and the pest or weed control at 25 µg/mL was 100%. In the experiment on wheat powdery mildew, the pest or weed control at 100 µg/mL was 100%, the pest or weed control at 400 µg/mL is 100%, the pest or weed control at 6.25 ppm is 100% and the pest or weed control at 25 ppm is 100%. Further, in the experiment on wheat powdery mildew, the pest or weed control at 100 ppm came to 100% and the pest or weed control at 400 ppm came out at 100%. Further, in the experiment with carmine spider mite (100 ppm, mortality after 72 hrs), the pest or weed control at 100 ppm stood at 100%. The same compound registered a pest or weed control at 600 ppm in the experiment with carmine spider mite (mortality after 72 hrs) of 100%. The inhibition at 25 ppm in the experiment with rice blast was 80 to 99%. The compound further had a pest or weed control at 10 ppm in experiment [1] (10 ppm, death rate after 48 hrs) of 100%. Further, in [1] (death rate after 48 hrs), the pest or weed control at 100 ppm is 100% and the pest or weed control at 600 ppm stood at 100%. Besides, the inhibition at 25 ppm in the experiment on cucumber gray mold was 100%. This compound displayed a pest or weed control at 600 ppm in the experiment on armyworm of 100%. In the experiment on corn rust, the pest or weed control at 6.25 ppm is 100%, the pest or weed control at 25 ppm is 100%, the pest or weed control at 100 ppm was 100% and the pest or weed control at 400 ppm turned out to be 100%.
For `CCc1ncnc(NCCc2ccc(Oc3cc(Cl)cc(Cl)c3)cc2)c1Cl` [II-303], in the experiment on wheat powdery mildew, the pest or weed control at 0.4 µg/mL turned out to be 25%, the pest or weed control at 1.6 µg/mL stood at 80%, the pest or weed control at 6.25 µg/mL was 90% and the pest or weed control at 25 µg/mL is 100%. Also, in the experiment on wheat powdery mildew, the pest or weed control at 100 µg/mL was 100%, the pest or weed control at 400 µg/mL stood at 100%, the pest or weed control at 6.25 ppm fell in the range of 80 to 99% and the pest or weed control at 25 ppm was found to be 100%. In the experiment on wheat powdery mildew, the pest or weed control at 100 ppm amounted to 100% and the pest or weed control at 400 ppm was determined as 100%. In the experiment with Diamond back moth (600 ppm, mortality after 72 hrs, read-out: control (test results against diamond back moth)), the pest or weed control at 600 ppm was 80 to 99%. Besides, in the experiment on carmine spider mite (mortality after 72 hrs), the pest or weed control at 600 ppm amounted to 100%. Also, in the experiment on cucumber downy mildew (read-out: protectant activity against cucumber downy mildew in vivo, 100 ppm), the pest or weed control at 100 ppm is 80 to 99%. For the same compound, the pest or weed control at 400 ppm with cucumber downy mildew (read-out: protectant activity against cucumber downy mildew in vivo, 400 ppm) is 100%. Also, in [1] (death rate after 48 hrs), the pest or weed control at 100 ppm was determined as 100% and the pest or weed control at 600 ppm is 100%. Besides, the inhibition at 25 ppm in the experiment on cucumber gray mold worked out at 100%. The pest or weed control at 600 ppm in the experiment on armyworm was in the range of 80 to 99%. In addition, the pest or weed control at 0.4 µg/mL in the experiment on corn rust (read-out: control effect against corn rust (%), 0.4 mg/L, protectant activity) was found to be 50%. Besides, the pest or weed control at 1.6 µg/mL with corn rust (read-out: control effect against corn rust (%), 1.6 mg/L, protectant activity) is 80%. In the experiment on corn rust (protectant activity), the pest or weed control at 6.25 µg/mL worked out at 100%, the pest or weed control at 25 µg/mL worked out at 100%, the pest or weed control at 100 µg/mL amounted to 100% and the pest or weed control at 400 µg/mL worked out at 100%. Further, in the experiment on corn rust, the pest or weed control at 6.25 ppm was 100%, the pest or weed control at 25 ppm amounted to 100%, the pest or weed control at 100 ppm was found to be 100% and the pest or weed control at 400 ppm is 100%.
